Results from article PMC10049354, “Anti-Inflammatory Effects and Photo- and Neuro-Protective Properties of BIO203, a New Amide Conjugate of Norbixin, in Development for the Treatment of Age-Related Macular Degeneration (AMD)” (International Journal of Molecular Sciences, 2023).

Columns and labels:
[1] = tested on: primary porcine RPE cells; assay: RPE phototoxicity: photoprotection of RPE cells exposed to A2E and blue light; type: cell-based, pig; conditions: all concentrations from 10 to 20 μM; A2E 30 μM + blue light
Experimental: RPE cells were obtained from pig eyes, as previously described. RPE cells were seeded on a 96-well plate at a density of 1.5 × 10^5 cells/cm^2 in DMEM 2% FCS. BIO201, BIO203, or its pure enantiomers were added in increasing concentrations to the culture medium 48 h before illumination. A2E was added to the medium at a final concentration of 30 μM, and 19 h later, blue-light illumination was performed for 50 min using a 96 blue-led device (Durand, St Clair de la Tour, France) emitting at 470 nm (1440 mcd, 8.6 mA). Just before illumination, the culture medium was replaced by a modified DMEM without any photosensitizer and with 2% FCS. Twenty-four hours after blue-light irradiation, all cell nuclei were stained with Hoechst 33342, and nuclei of dead cells with ethidium homodimer 2, fixed with paraformaldehyde (4% in PBS, 10 min) and 9 pictures per well were captured using a fluorescence microscope (Nikon TiE) equipped with a CoolSNAP HQ2 camera and driven by Metamorph Premier On-Line program. Quantification of live cells was performed using Metamorph Premier Off-Line and a homemade program by subtraction of dead cells from all cells. For cytokines mRNA analysis, RPE cells were seeded in 24-well plates and left untreated or treated with A2E or BIO203 alone or A2E plus BIO203. After 48 h, cells were lysed using the lysis buffer from the NucleoSpin® RNA kit, and the samples were stored at −80 °C.

[2] = tested on: albino rats exposed to blue-light-induced photoreceptor degeneration; assay: Blue-light damage (BLD) study in albino rats: ERG; type: in vivo, rat; conditions: 50 mg/kg, four IP administrations; positive controls
Experimental: The ERG in rats was performed using the electrophysiological system RETI-animal® from Roland Consult. ERG was recorded on both eyes from overnight dark-adapted animals. Rats were anesthetized by an intramuscular injection of a mix of Rompun® (xylazine)/Imalgene® (ketamine) before ERG measurement. Ten to fifteen minutes before measurement, one drop of Mydriaticum® (0.5% tropicamide) was instilled for pupillary dilatation. The A-wave and B-wave implicit times (ms) and amplitudes (µV) were measured for each ERG. The B-wave amplitude (value and %) was given as informative data. ERG parameters: Ganzfeld Q450C, Color: white maximum, Maximum intensity: 3 cd/m^2 (0 dB); Duration 0.24 ms; number of flashes: 1, Filter: 50 Hz, Impedance threshold: 50 kΩ. For scotopic ERGs, the A-wave amplitudes were measured from the baseline to the peak of the negative potential, whereas B-wave amplitudes were measured from the trough of the A-wave to the peak of the positive potential. The recordings obtained from these analyses were tabulated and normalized (%) for each eye. Group means, standard deviation, and median values were calculated, considering each eye from one animal as a separate value. ERG recordings in mice were performed as previously described.
(§1) Sixty-four animals were selected based on good health and on scotopic electroretinogram performed before induction when the A-wave amplitude of both eyes was in the range of the global mean (all animals) of A-wave amplitude ± 1.96 SD. Animals were then randomized into the study groups using a macro function in Excel® software based on the A-wave amplitude of both eyes (mean value). On Day 0, BIO203, negative controls, and comparator (N-tert-Butyl-a-phenylnitrone (PBN)) were intraperitoneally injected using a 25 G needle in rats that have been dark-adapted for 36 h. Individually housed rats were then exposed for 6 h (±5 min) to a continuous blue, fluorescent light (400–540 nm) in clear plastic cages. After exposure and administration, the rats were placed in a dark room for 24 h (±1 h) and then were returned to rearing cyclic light conditions.

[3] = tested on: albino rats exposed to blue-light-induced photoreceptor degeneration; assay: Blue-light damage (BLD) study in albino rats: retinal histology (photoreceptor layers); type: in vivo, rat; conditions: 50 mg/kg, four IP administrations; 6 h blue-light exposure; p < 0.0001
Experimental: At the end of the measurement period on Day 7, rats were euthanized by an intraperitoneal injection of pentobarbital. Immediately after euthanasia, both eyeballs were sampled, fixed in Davidson’s solution, and processed for histology. Sections (5 to 7 µm thick) were performed along the vertical meridian and stained with Haematoxylin/Eosin stain. The vertical meridian included the optic nerve. […] The thickness of the outer nuclear layer was measured on each point. […] Histology and photoreceptor counting in mice were performed as previously described.
as §1

| SMILES | protective activity compared with BIO203 (racemate) [1] | effect on visual function (ERG A-wave and B-wave) [2] | preservation of retinal structure (photoreceptor layers) [3] |
| --- | --- | --- | --- |
| CO[C@@H]1CCCN(C(=O)/C=C/C(C)=C/C=C/C(C)=C/C=C/C=C(C)/C=C/C=C(C)\C=C\C(=O)O)C1 [BIO203-R] | same protective activity as BIO203 |  |  |
| CO[C@H]1CCCN(C(=O)/C=C/C(C)=C/C=C/C(C)=C/C=C/C=C(C)/C=C/C=C(C)\C=C\C(=O)O)C1 [BIO203-S] | same protective activity as BIO203 |  |  |
| CC(C)(C)[N+]([O-])=Cc1ccccc1 [PBN, N-tert-Butyl-a-phenylnitrone, reference compound] |  | protected the visual functions | partially preserved the retinal structure |
